Data taken from patent publication US4261885A, “Novel somatostatin analogue” (Shiraimatsu Shingaku Co., Ltd., priority 1978, dated 1981).
Peptide text beside a SMILES is read from it.

Columns and labels:
blood glucagon levels = experiment: Arginine-induced changes in blood glucagon in rats (radioimmunoassay); format: in vivo, rat
Protocol: (§1) Studies were made of the effects of the compound of this invention on arginine-induced changes in blood glucose, insulin and glucagon levels and the results obtained were compared with those of somatostatin.
(§2) Male SD rats weighing 300 to 500 g were anesthetized with sodium pentobarbital (60 mg/kg of body weight, by intraabdominal puncture) and polyethylene catheters were placed in their carotid artery. Saline was infused over 10 minutes, and arginine was infused at a rate of 3 g/kg/hr, for 60 minutes, using an infusion pump (at a rate of 4.5 ml/kg/hr). For 30 minutes, immediately after the start of arginine infusion, somatostatin or the compound of this invention was infused at rates of 4 μg/kg/hr, as a basal dose, 40 μg/kg/hr as 10 times as the basal dose, and 400 μg/kg/hr, as 100 times as the basal dose, respectively.
(§3) Before and 15 minutes, 30 minutes and 60 minutes after the start of arginine infusion, blood samples were taken in the presence of heparine. Blood glucose values were measured by the glucose oxidase method, and blood insulin and glucagon values were measured by the radioimmunoassay method.

blood insulin levels = experiment: Arginine-induced changes in blood insulin in rats (radioimmunoassay); format: in vivo, rat
Protocol: as §1, §2, §3

blood glucose levels = experiment: Arginine-induced changes in blood glucose in rats (glucose oxidase method); format: in vivo, rat
Protocol: as §1, §2, §3

mouse = experiment: Acute toxicity, infusion into the tail vein of a test mouse; format: in vivo
Protocol: The experiment for determining acute toxicity is carried out by infusing this compound into the tail vein of a test mouse in the amount of 5 mg/kg of body weight.

Solubility in water = format: physicochemical
[1] = Stability in pharmaceutical preparations; format: physicochemical; details: when used in pharmaceutical preparations
[2] = rats, arginine 3 g/kg/hr, substance infused for 30 minutes

## C[C@H](N)C(=O)NCC(=O)N[C@H]1CSSC[C@@H](C(=O)O)NC(=O)[C@H](CO)NC(=O)[C@H]([C@@H](C)O)NC(=O)[C@H](Cc2ccccc2)NC(=O)[C@H]([C@@H](C)O)NC(=O)[C@H](CCCCN)NC(=O)[C@H](Cc2c[nH]c3ccccc23)NC(=O)[C@H](Cc2ccccc2)NC(=O)[C@H](Cc2ccccc2)NC(=O)[C@H](CC(N)=O)NC(=O)[C@H](CCCCN)NC1=O [somatostatin]
Blood glucagon levels; 45 minutes after start of arginine infusion
  effect on blood glucagon level: lost its effect
Blood glucagon levels; at more than 10 times the basal dose, 15 minutes and 30 minutes after start of arginine infusion
  blood glucagon level versus control: significantly lowered its level
Blood insulin levels; 15 minutes after the suspension of infusion, conclusion on insulin and glucagon
  effect after the suspension of infusion: its effect was no longer observed
Blood insulin levels; 45 minutes after start of arginine infusion = 15 minutes after suspension of substance infusion
  effect on blood insulin level after suspension of infusion: failed to exert its effect
Blood insulin levels; at more than 10 times the basal dose, 15 minutes after start of arginine infusion
  rise in blood insulin levels versus control: significantly inhibited
Blood insulin levels; at more than 100 times the basal dose, 30 minutes after start of arginine infusion
  rise in blood insulin levels versus control: significantly inhibited
Blood insulin levels; [2]
  rise in blood insulin levels (insulin secretion) enhanced by arginine: inhibited the rise in blood insulin levels dose dependently
Blood glucose levels; at 100 times the basal dose (basal 4 μg/kg/hr), 30 minutes after start of arginine infusion
  blood glucose level versus control: Statistically significant low levels of blood glucose
Blood glucose levels; at more than 10 times the basal dose (basal 4 μg/kg/hr), 15 minutes after start of arginine infusion
  blood glucose level versus control: Statistically significant low levels of blood glucose
Blood glucose levels; [2]
  rise in blood glucose levels induced by arginine: inhibited

## C[C@@H](O)[C@@H]1NC(=O)[C@H](CCCCN)NC(=O)[C@@H](Cc2c[nH]c3ccccc23)NC(=O)[C@H](Cc2ccccc2)NC(=O)[C@H](Cc2ccccc2)NC(=O)[C@H](CC(N)=O)NC(=O)[C@H](CCCCN)NC(=O)CCCCC[C@H](C(=O)O)NC(=O)[C@H](CO)NC(=O)[C@H]([C@@H](C)O)NC(=O)[C@H](Cc2ccccc2)NC1=O [the compound of this invention, Des-(Ala^1,Gly^2)-(D-Trp^8,D-Asu^3,14)-somatostatin] (HELM PEPTIDE1{K.N.F.F.[dW].K.T.F.T.S.[O=C(O)[C@@H](CCCCCC(=O)[*:3])N[*:1]]}$PEPTIDE1,PEPTIDE1,1:R1-11:R3$$$V2.0)
mouse; tail vein infusion, 5 mg/kg of body weight
  changes or side effects in respect of body weight, body temperature and blood sugar value: No significant changes or side effects were observed
mouse; tail vein, concluded from the 5 mg/kg experiment
  acute toxicity: considered to be insignificant
Solubility in water
  solubility in water: soluble in water
[1]
  stability compared with somatostatin: far superior to somatostatin
